The text below walks through data of ChEMBL document CHEMBL1201862, “PubChem BioAssay data set” (2004).

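Values below derive from 48-hour exposures of cells grown in 96-well plates, with endpoints linearly interpolated between the two concentrations bracketing the appropriate inhibition level. GI50: concentration for 50% inhibition of growth.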 Calls of active or inactive are those of the source. No stated cut-off is given here; in the data, active = GI50 up to about 1.1 µM and inactive = higher. Some results are limits rather than exact numbers.

Test systems include CAKI-1; DLD-1; DMS-114; HCC 2998; HCT-15; LOX IMVI; LXFL 529; NCI-H23; SF-268; SF-295; SK-MEL-28; SN12C; SNB-19; SNB-75; SNB-78; U-251; UACC-62.
Common to all, as to test: NCI-60 cell line screen, 48 h

For `O=C1C(=O)N(c2cc(Cl)ccc2Cl)C(=O)C(=O)C1c1nc2ccccc2o1`, the GI50 in the assay with CAKI-1 is > 100 µM (inactive); with DLD-1, > 100 µM (inactive); in the assay on DMS-114, > 89.1 µM (inactive); with HCC 2998 it was > 100 µM (inactive); in the assay with HCT-15 it was over 100 µM; with LOX IMVI it was > 100 µM (inactive). Moreover, the GI50 with LXFL 529, in the assay with NCI-H23, with SF-268, in the assay with SF-295, in the assay with SK-MEL-28 and in the assay with SN12C was > 100 µM (inactive) throughout. Moreover, the GI50 is > 100 µM (inactive) in the assay on SNB-19; > 67.6 µM (inactive) in the assay with SNB-75; > 100 µM (inactive) in the assay on SNB-78; > 100 µM (inactive) in the assay with U-251; > 100 µM (inactive) in the assay on UACC-62.
Consider `N=c1oc2cc(O)c(O)cc2cc1C(N)=O`, for which the GI50 in the assay with CAKI-1 is > 100 µM (inactive); in the assay with DLD-1 it was > 100 µM (inactive); in the assay with DMS-114, > 100 µM (inactive); in the assay on HCC 2998, > 100 µM (inactive); with HCT-15, over 100 µM; in the assay with LOX IMVI, > 100 µM (inactive). Besides, the GI50 with LXFL 529 is > 100 µM (inactive); with NCI-H23, > 100 µM (inactive); with SF-268, 81.3 µM (inactive); with SF-295 it was > 100 µM (inactive); in the assay with SK-MEL-28, > 100 µM (inactive); with SN12C, > 100 µM (inactive). Moreover, the GI50 is > 100 µM (inactive) with SNB-19; 25 µM (inactive) in the assay on SNB-75; > 100 µM (inactive) in the assay on SNB-78; > 100 µM (inactive) in the assay with U-251; > 100 µM (inactive) in the assay on UACC-62.
On to `COc1cc([C@@H]2c3cc4c(cc3[C@@H](NC(=O)c3cccc(N)c3)C3COC(=O)[C@@H]32)OCO4)cc(OC)c1O` (stereo partly drawn), for which the GI50 is 0.333 µM (active) with CAKI-1; 7.03 µM (inactive) with DLD-1; 0.968 µM (active) in the assay with DMS-114; 2.21 µM (inactive) in the assay with HCC 2998; 1.99 µM with HCT-15; 0.491 µM (active) in the assay on LOX IMVI. Moreover, the GI50 is 13.1 µM (inactive) in the assay with LXFL 529; 0.261 µM (active) in the assay with NCI-H23; 0.935 µM (active) in the assay on SF-268; 0.262 µM (active) in the assay on SF-295; 8.63 µM (inactive) in the assay with SK-MEL-28; 0.445 µM (active) in the assay with SN12C. Also, the GI50 in the assay with SNB-19 was 0.569 µM (active); in the assay with SNB-75, 1.48 µM (inactive); in the assay with SNB-78 it was 3.92 µM (inactive); in the assay on U-251, 0.242 µM (active); with UACC-62 it was 0.619 µM (active).
In the case of `O=C(O)C1Cc2[nH]c3ccccc3c2C2CCCC12` (stereo not drawn), the GI50 was > 100 µM (inactive) in the assay with CAKI-1; > 100 µM (inactive) in the assay on DLD-1; > 100 µM (inactive) with DMS-114; > 100 µM (inactive) in the assay on HCC 2998; over 100 µM with HCT-15; > 100 µM (inactive) in the assay with LOX IMVI. Also, the GI50 in the assay with LXFL 529, in the assay with NCI-H23, with SF-268, in the assay on SF-295, with SK-MEL-28 and with SN12C was > 100 µM (inactive) throughout. The GI50 in the assay on SNB-19 is > 100 µM (inactive); with SNB-75, 46.3 µM (inactive); in the assay on SNB-78, > 100 µM (inactive); in the assay on U-251 it was > 100 µM (inactive); in the assay with UACC-62 it was > 100 µM (inactive).
